Assay results: patent US20100255580A1, “Differentiation of Human Embryonic Stem Cells” (LIFESCCAN, INC., priority 2007, published 2010)
“And” between values parts separate entries of the source, which are not always exact repeats. Identical values can stand only once.

System: human embryonic stem cell line H9
Assay: Cytokine array analysis of cell lysates and conditioned media
Format: cell-based
Parameters: key to BMP-4 expression / BMP-6 expression / EGF expression / FGF-6 expression / Fractalkine expression / GCP-2 expression / IL-3 expression / IL-4 expression / IL-6 expression / M-CSF expression / MIG expression / Amphiregulin expression: cytokine array signal, normalized and background-subtracted
Description: The effect that Wnt-3a treatment has on cytokine expression was analyzed using a protein array. Cells of the human embryonic stem cell line H9 were cultured according to the methods described in Example 15. At passage 54, cells were differentiated in the presence of 100 ng/ml ActivinA+/−10 ng/ml Wnt3a for 2 days in 0.5% FBS DMEM/F12. Cells were subsequently cultured for an additional three days in 100 ng/mlActivin A and 2% FBS DMEM/F12. At the end of the 5th day, CXCR4 expression was determined by FACS for each treatment group.
Cell lysates were prepared from cells of each treatment group, with a mammalian cell lysis kit (Sigma-Aldrich, MO). Conditioned media from each treatment group was collected and concentrated. Cytokine array analysis was completed using Cytokine Array panels provided by RayBiotech, GA (http://www.raybiotech.com/). Table VII lists cytokine, growth factor, and receptor expression following normalization of the data and background subtraction. For each panel, positive and negative controls are also included. Th data shown are two independent samples per cell treatment group (1,2).

Question: What does the source list for “Activin A: a member of the TGFβ superfamily; R&D Systems; Group 2 = Activin A (100 ng/ml)”?
Answer: 1L-1beta expression (Cell conditioned media): 117.99 and 75.93; 1L-1ra expression (Cell conditioned media): 142.34 and 93.74; Acrp30 expression (Cell conditioned media): 1,797.52 and 1,319.88; AgRP expression (Cell conditioned media): 378.17 and 195.90; Amphiregulin expression (Cell conditioned media): 250.52 and 151.01; Angiogenin expression (Cell conditioned media): 13,726.35 and 11,749.55; Angiopoietin-2 expression (Cell conditioned media): 655.82 and 632.60; AxI expression (Cell conditioned media): 401.31 and 324.05; BDNF expression (Cell conditioned media): 689.22 and 563.39; BMP-4 expression (Cell conditioned media): 583.40 and 541.83; BMP-6 expression (Cell conditioned media): 354.91 and 355.28; CK beta 8-1 expression (Cell conditioned media): 17.79 and 25.31; CNTF expression (Cell conditioned media): 282.81 and 211.86; EGF expression (Cell conditioned media): 1,681.85 and 1,406.12; Eotaxin expression (Cell conditioned media): 207.89 and 199.67; Eotaxin-2 expression (Cell conditioned media): 890.56 and 744.31; Eotaxin-3 expression (Cell conditioned media): 975.77 and 665.56; FGF-7 expression (Cell conditioned media): 449.49 and 352.47; Flt-3 Ligand expression (Cell conditioned media): 315.58 and 277.47; Fractalkine expression (Cell conditioned media): 120.80 and 145.30; GCP-2 expression (Cell conditioned media): 203.21 and 166.86; GDNF expression (Cell conditioned media): 176.99 and 194.98; GM-CSF expression (Cell conditioned media): 777.25 and 722.75; IFN-gamma expression (Cell conditioned media): 283.74 and 559.64; IGF-I expression (Cell conditioned media): 88.96 and 148.11; IGFBP-1 expression (Cell conditioned media): 33.71 and 24.37; IGFBP-2 expression (Cell conditioned media): 27,656.85 and 28,473.95; IGFBP-4 expression (Cell conditioned media): 10,091.09 and 6,029.45; IL-1alpha expression (Cell conditioned media): 10,155.70 and 5,842.90; IL-2 expression (Cell conditioned media): 188.22 and 363.72; IL-3 expression (Cell conditioned media): 4,598.86 and 5,260.77; IL-4 expression (Cell conditioned media): 357.72 and 239.04; IL-6 expression (Cell conditioned media): 7,377.28 and 9,527.88; IL-7 expression (Cell conditioned media): 456.98 and 430.27; IL-10 expression (Cell conditioned media): 722.93 and 564.32; IL-16 expression (Cell conditioned media): 259.39 and 214.67; LIGHT expression (Cell conditioned media): 619.92 and 453.71; Leptin expression (Cell conditioned media): 2,999.42 and 2,016.38; M-CSF expression (Cell conditioned media): 529.09 and 269.04; MCP-1 expression (Cell conditioned media): 572.17 and 500.58; MCP-4 expression (Cell conditioned media): 123.61 and 61.87; MIG expression (Cell conditioned media): 272.50 and 486.52; NAP-2 expression (Cell conditioned media): 97.39 and 110.61; NT-3 expression (Cell conditioned media): 97.39 and 171.55; PDGF-BB expression (Cell conditioned media): 4,729.96 and 8,521.09; RANTES expression (Cell conditioned media): 393.31 and 347.78; SCF expression (Cell conditioned media): 691.09 and 487.46; TGF-beta 1 expression (Cell conditioned media): 752.90 and 740.56; TGF-beta 3 expression (Cell conditioned media): 111.44 and 115.30; TNF-beta expression (Cell conditioned media): 675.17 and 671.19; bFGF expression (Cell conditioned media): 7,948.03 and 4,993.83; 1L-1beta expression (Cell lysate): 1.00 and 1.13; 1L-1ra expression (Cell lysate): 33.00 and 25.91; Amphiregulin expression (Cell lysate): 17.50 and 15.44; AxI expression (Cell lysate): 637.50 and 795.83; BDNF expression (Cell lysate): 167.50 and 167.82; BMP-4 expression (Cell lysate): 247.00 and 273.70; CK beta 8-1 expression (Cell lysate): 1.00 and 1.13; Eotaxin-2 expression (Cell lysate): 262.00 and 336.77; Eotaxin-3 expression (Cell lysate): 184.50 and 284.96; FGF-6 expression (Cell lysate): 629.00 and 379.57; GM-CSF expression (Cell lysate): 433.00 and 636.37; I-309 expression (Cell lysate): 152.50 and 246.10; IFN-gamma expression (Cell lysate): 349.00 and 441.52; IGFBP-2 expression (Cell lysate): 3,785.50 and 5,554.45; IGFBP-4 expression (Cell lysate): 5,553.00 and 6,043.27; IL-1alpha expression (Cell lysate): 1,236.00 and 1,216.99; IL-5 expression (Cell lysate): 400.50 and 555.84; IL-6 expression (Cell lysate): 828.50 and 516.98; IL-7 expression (Cell lysate): 190.00 and 313.12; IL-13 expression (Cell lysate): 428.50 and 555.84; IL-15 expression (Cell lysate): 599.50 and 808.13; Leptin expression (Cell lysate): 900.50 and 617.79; MCP-1 expression (Cell lysate): 242.50 and 282.71; MIG expression (Cell lysate): 291.00 and 226.39; MIP-1-delta expression (Cell lysate): 1.50 and 1.13; NT-3 expression (Cell lysate): 1.00 and 1.13; SCF expression (Cell lysate): 74.50 and 148.67; TGF-beta 1 expression (Cell lysate): 362.00 and 230.33; TNF-alpha expression (Cell lysate): 431.00 and 579.49; TNF-beta expression (Cell lysate): 241.00 and 342.40; bFGF expression (Cell lysate): 59,820.50 and 54,057.29
